Data taken from the supplement of paper PMC10307832.

Legend:
Test in all cases: relative viability (nuclei count vs DMSO), 5 days (fraction); higher = more cells survive
Axitinib + Phenformin = compound: CNC(=O)c1ccccc1Sc1ccc2c(/C=C/c3ccccn3)n[nH]c2c1 [Axitinib] + N=C(N)NC(=N)NCCc1ccccc1 [Phenformin] (partner 250 µM)
How it was run: (§1)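 The day after seeding in 1536-well plates, lung cancer cell lines were treated by pin tool with a single drug, or with a fixed anchor-drug dose together with five library-drug doses (not always all listed) in √10 steps. After 5 days, a combined fix-and-stain solution (final 0.05% Triton X-100, 1% formaldehyde, 1 ug/ml Hoechst) was added. Nuclei counted on 4× images gave relative viability as treated counts over vehicle counts, reported as the median of duplicate plates.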

[1] = compound: CC1=CC=C(C=C1)C(=O)CN2C3=C(CCCC3)SC2=N [Pifithrin_alpha] + O=C(c1cc(Cc2n[nH]c(=O)c3ccccc23)ccc1F)N1CCN(C(=O)C2CC2)CC1 [Olaparib] (partner 8 µM)
How it was run: as §1

Axitinib + Linsitinib = compound: CNC(=O)c1ccccc1Sc1ccc2c(/C=C/c3ccccn3)n[nH]c2c1 [Axitinib] + C[C@]1(O)C[C@@H](c2nc(-c3ccc4ccc(-c5ccccc5)nc4c3)c3c(N)nccn32)C1 [Linsitinib] (partner 1 µM)
How it was run: as §1

[2] = compound: CC1=CC=C(C=C1)C(=O)CN2C3=C(CCCC3)SC2=N [Pifithrin_alpha] + Cc1cc(Nc2cc(N3CCN(C)CC3)nc(Sc3ccc(NC(=O)C4CC4)cc3)n2)n[nH]1 [Tozasertib] (partner 0.1 µM)
How it was run: as §1

| Cell Line | relative viability (Axitinib + Phenformin; first compound 0.005 µM) | relative viability (Axitinib + Phenformin; first compound 0.01581 µM) | relative viability (Axitinib + Phenformin; first compound 0.05 µM) | relative viability (Axitinib + Phenformin; first compound 0.1581 µM) | relative viability (Axitinib + Phenformin; first compound 0.5 µM) | relative viability ([1]; first compound 1 µM) | relative viability ([1]; first compound 3.162 µM) | relative viability ([1]; first compound 31.62 µM) | relative viability ([1]; first compound 100 µM) | relative viability (Axitinib + Linsitinib; first compound 0.005 µM) | relative viability (Axitinib + Linsitinib; first compound 0.01581 µM) | relative viability (Axitinib + Linsitinib; first compound 0.05 µM) | relative viability (Axitinib + Linsitinib; first compound 0.1581 µM) | relative viability (Axitinib + Linsitinib; first compound 0.5 µM) | relative viability ([2]; first compound 1 µM) | relative viability ([2]; first compound 3.162 µM) | relative viability ([2]; first compound 10 µM) | relative viability ([2]; first compound 100 µM) | relative viability ([1]; first compound 10 µM) | relative viability ([2]; first compound 31.62 µM) |
| --- | --- | --- | --- | --- | --- | --- | --- | --- | --- | --- | --- | --- | --- | --- | --- | --- | --- | --- | --- | --- |
| EMC-BAC-2 | 0.552 | 0.535 | 0.483 | 0.547 | 0.57 | 0.419 | 0.412 | 0.252 | 0.351 | 0.874 | 0.781 | 0.813 | 0.782 | 0.837 | 0.272 | 0.288 | 0.283 | 0.248 |  |  |
| HCC-44 | 0.165 | 0.27 | 0.211 | 0.198 | 0.176 | 0.918 | 0.877 | 0.553 | 0.627 | 0.756 | 0.699 | 0.746 | 0.692 | 0.733 | 0.748 | 1.07 | 0.685 | 0.452 | 0.818 | 0.461 |
| LOU-NH91 | 0.763 | 0.523 | 0.875 | 0.684 | 0.695 | 0.821 | 0.908 | 0.523 | 0.795 | 1.08 | 0.595 | 0.997 | 0.948 | 0.961 | 0.663 | 0.612 | 0.637 | 0.578 | 0.864 | 0.543 |
| NCI-H3122 | 0.347 | 0.369 | 0.397 | 0.379 | 0.415 | 0.635 | 0.48 | 0.291 | 0.389 | 1.02 | 0.991 | 1.05 | 1.05 | 1.07 | 0.438 | 0.325 | 0.375 | 0.44 | 0.511 |  |
| NCI-H1975 | 0.436 | 0.43 | 0.408 | 0.391 | 0.446 | 0.676 | 0.437 | 0.467 | 0.354 | 1.17 | 1.1 | 1.09 | 0.988 | 1.18 | 0.592 | 0.431 | 0.181 | 0.203 | 0.374 | 0.141 |
| NCI-H661 | 0.281 | 0.29 | 0.271 | 0.267 | 0.285 | 0.777 | 0.882 | 0.601 | 0.669 | 0.717 | 0.58 | 0.418 | 0.542 | 0.666 | 0.359 | 0.354 | 0.358 | 0.346 | 0.656 | 0.355 |
| NCI-H1651 | 0.295 | 0.295 | 0.347 | 0.304 | 0.353 | 0.184 | 0.191 | 0.143 | 0.194 | 1.08 | 0.895 | 0.914 | 0.964 | 1.23 | 0.678 | 0.592 | 0.403 | 0.384 | 0.173 | 0.33 |
| NCI-H647 | 0.663 | 0.498 | 0.558 | 0.504 | 0.893 | 0.531 | 0.44 | 0.217 | 0.492 | 1.23 | 1.27 | 1.19 | 1.25 | 1.44 | 0.339 | 0.382 | 0.288 | 0.145 | 0.531 | 0.188 |
| HCC-78 | 0.67 | 0.667 | 0.752 | 0.657 | 0.474 |  | 0.925 | 0.51 | 0.683 | 0.602 | 0.414 | 0.52 | 0.526 | 0.479 | 0.56 | 0.543 | 0.423 | 0.404 | 0.785 | 0.35 |
| NCI-H2126 | 0.528 | 0.555 | 0.548 | 0.552 | 0.564 | 0.91 | 1.01 | 0.691 | 0.927 | 0.696 | 0.724 | 0.728 | 0.667 | 0.676 | 0.568 | 0.772 | 0.602 | 0.432 | 0.924 | 0.596 |
| SK-LU-1 | 0.601 | 0.597 | 0.622 | 0.558 | 0.752 | 0.418 | 0.486 | 0.354 | 0.457 | 1.25 | 1.28 | 1.18 | 1.17 | 1.36 | 0.291 | 0.329 | 0.291 | 0.316 | 0.453 |  |
| LC-2-ad | 0.578 | 0.592 | 0.586 | 0.527 | 0.498 | 0.756 | 0.739 | 0.444 | 0.555 | 0.843 | 0.844 | 0.887 | 0.833 | 1.01 |  | 0.357 | 0.379 | 0.311 | 0.683 |  |
| NCI-H23 | 0.577 | 0.842 | 0.857 | 0.708 | 0.847 | 0.248 | 0.249 | 0.191 | 0.177 | 0.66 | 0.618 | 0.653 | 0.587 | 0.721 | 0.304 | 0.299 | 0.316 | 0.258 | 0.223 |  |
| NCI-H2228 | 0.324 | 0.326 | 0.412 | 0.36 | 0.269 | 0.681 | 0.634 | 0.647 | 0.549 | 0.674 | 0.625 | 0.633 | 0.735 | 0.58 | 0.247 | 0.147 | 0.209 | 0.135 | 0.605 | 0.154 |
| SW 1573 | 0.465 | 0.37 | 0.398 | 0.295 | 0.408 | 0.493 | 0.466 |  | 0.342 | 0.911 | 0.855 | 0.899 | 0.8 | 0.84 | 0.184 | 0.165 | 0.177 | 0.174 | 0.413 | 0.204 |
